The record followed here is US10029984B2, “Mono- or di-substituted indole derivatives as dengue viral replication inhibitors” (Janssen Pharmaceuticals, Inc., priority 2015, dated 2018).

In data set [1] the test system is Vero cells. Briefly: in vitro. It is filed as cell-based. The settings on record: African green monkey. The procedure: In parallel, the toxicity of the compounds was assessed on the same plates. Once the read-out for the eGFP signal was done, 10 μL of resazurin, a cell viability stain, was added to all wells of the 384-well plates. The resazurin assay is based on the reduction of the blue resazurin by NADH, produced by the cells, into the highly fluorescent product, resorufin. The formation of pink fluorescent resorufin is directly related to the number of viable cells in the well. The plates were incubated for an additional 5 hours in a fully humidified incubator (37° C., 5% CO2). Next, the plates were measured on an Infinite reader (Tecan) using an excitation wavelength of 530 nm. The half maximal cytotoxic concentration (CC50) was also determined, defined as the concentration required to reduce the resazurin conversion by 50% compared to that of the cell control wells. Finally, the selectivity index (SI) was determined for the compounds, which was calculated as followed: SI=CC50/EC50.

Data set [2] relates to DENV-2 16681 strain. As to the kind of experiment: DENV-2 antiviral assay (eGFP-labeled virus in Vero cells). Type of data set: cell-based, Dengue virus. The following applies: DENV-2 16681 eGFP, MOI 0.5, 3 days. The procedure:
The antiviral activity of all the compounds of the invention was tested against DENV-2 16681 strain which was labeled with enhanced green fluorescent protein (eGPF; Table 1). The culture medium consists of minimal essential medium supplemented with 2% of heat-inactivated fetal calf serum, 0.04% gentamycin (50 mg/mL) and 2 mM of L-glutamine. Vero cells, obtained from ECACC, were suspended in culture medium and 25 μL was added to 384-well plates (2500 cells/well), which already contain the antiviral compounds. Typically, these plates contain a 4-fold serial dilution of 9 dilution steps of the test compound at 200 times the final concentration in 100% DMSO (200 nL). In addition, each compound concentration is tested in quadruplicate (final concentration range: 25 μM-0.00038 μM). Finally, each plate contains wells which are assigned as virus controls (containing cells and virus in the absence of compound), cell controls (containing cells in the absence of virus and compound) and medium controls (containing medium in the absence of cells, virus and compounds). To the wells assigned as medium control, 25 μL of culture medium was added instead of Vero cells. Once the cells were added to the plates, the plates were incubated for 30 minutes at room temperature to allow the cells to distribute evenly within the wells. Next, the plates were incubated in a fully humidified incubator (37° C., 5% CO2) until the next day. Then, DENV-2 strain 16681, labeled with eGFP, was added at a multiplicity of infection (MOI) of 0.5. Therefore, 15 μL of virus suspension was added to all the wells containing test compound and to the wells assigned as virus control. In parallel, 15 μL of culture medium was added to the medium and cell controls. Next, the plates were incubated for 3 days in a fully humidified incubator (37° C., 5% CO2). At the day of the read out, the eGFP fluorescence was measured using an automated fluorescence microscope at 488 nm (blue laser). Using an in-house LIMS system, inhibition dose response curves for each compound were calculated and the half maximal effective concentration (EC50) was determined. Therefore, the percent inhibition (I) for every test concentration is calculated using the following formula: I=100*(ST−SCC)/(SVC−SCC); ST, SCC and SVC are the amount of eGFP signal in the test compound, cell control and virus control wells, respectively. The EC50 represents the concentration of a compound at which the virus replication is inhibited with 50%, as measured by a 50% reduction of the eGFP fluorescent intensity compared to the virus control. The EC50 is calculated using linear interpolation.

Each structure is given as a SMILES string. pEC50: −log10 of the molar value.

One may read the CC50 as the concentration giving 50% cytotoxicity. By pEC50 is commonly meant the EC50 on a negative log10 scale, so that one unit is a factor of ten. On to `COc1cc(NC(C(=O)c2c[nH]c3cc(F)ccc23)c2ccc(F)cc2OC)cc(S(C)(=O)=O)c1` (single isomer, unassigned) [Enantiomer 1B, 1-(6-fluoro-1H-indol-3-yl)-2-(4-fluoro-2-methoxyphenyl)-2-((3-methoxy-5-(methylsulfonyl)phenyl)amino)ethanone], for which, in data set [1], the CC50 was 12000 nM. Moreover, the pEC50 in data set [2] (listed as 1B) is 7.30.
In data set [1], `COc1cc(NC(C(=O)c2c[nH]c3c(C)c(F)ccc23)c2ccc(F)cc2OC)cc(S(C)(=O)=O)c1` (single isomer, unassigned) [Enantiomer 2B, 2-(4-fluoro-2-methoxyphenyl)-1-(6-fluoro-7-methyl-1H-indol-3-yl)-2-((3-methoxy-5-(methylsulfonyl)phenyl)amino)ethanone] yielded a CC50 of 8000 nM. The molecule also had a negative logarithm of the EC50 (pEC50) in data set [2] (listed as 2B) of 7.26.
`COc1cc(NC(C(=O)c2c[nH]c3c(C)c(Cl)ccc23)c2ccc(F)cc2OC)cc(S(C)(=O)=O)c1` (single isomer, unassigned) [Enantiomer 3B, 1-(6-chloro-7-methyl-1H-indol-3-yl)-2-(4-fluoro-2-methoxyphenyl)-2-((3-methoxy-5-(methylsulfonyl)phenyl)amino)ethanone]: the CC50 in data set [1] came to 11000 nM. Also, the pEC50 in data set [2] (listed as 3B) is 7.49.
Consider `COc1cc(NC(C(=O)c2c[nH]c3cc(Cl)ccc23)c2ccc(F)cc2OC)cc(S(C)(=O)=O)c1` (single isomer, unassigned) [Enantiomer 4B, 1-(6-chloro-1H-indol-3-yl)-2-(4-fluoro-2-methoxyphenyl)-2-((3-methoxy-5-(methylsulfonyl)phenyl)amino)ethanone], for which the CC50 in data set [1] came out at 16000 nM. In addition, in data set [2] (listed as 4B), the pEC50 is 7.74.
In data set [1], `COc1cc(NC(C(=O)c2c[nH]c3c(F)cc(C)cc23)c2ccc(F)cc2OC)cc(S(C)(=O)=O)c1` (single isomer, unassigned) [Enantiomer 6B, 2-(4-fluoro-2-methoxyphenyl)-1-(7-fluoro-5-methyl-1H-indol-3-yl)-2-((3-methoxy-5-(methylsulfonyl)phenyl)amino)ethanone] came in with a CC50 of 12000 nM. For the same molecule, the pEC50 in data set [2] (listed as 6B) was 6.70.
The molecule `COc1cc(NC(C(=O)c2c[nH]c3cc(F)c(F)cc23)c2ccc(F)cc2OC)cc(S(C)(=O)=O)c1` (single isomer, unassigned) [Enantiomer 7B, 1-(5,6-difluoro-1H-indol-3-yl)-2-(4-fluoro-2-methoxyphenyl)-2-((3-methoxy-5-(methylsulfonyl)phenyl)amino)ethanone] registered a CC50 in data set [1] of 9600 nM. Also, the pEC50 in data set [2] (listed as 7B) is 7.37.
On to `COc1cc(NC(C(=O)c2c[nH]c3c(C)cc(F)cc23)c2ccc(F)cc2OC)cc(S(C)(=O)=O)c1` (single isomer, unassigned) [Enantiomer 8B, 2-(4-fluoro-2-methoxyphenyl)-1-(5-fluoro-7-methyl-1H-indol-3-yl)-2-((3-methoxy-5-(methylsulfonyl)phenyl)amino)ethanone], for which, in data set [1], the CC50 worked out at 11000 nM. In data set [2] (listed as 8B), this molecule gave a pEC50 of 6.62.
On to `COc1cc(NC(C(=O)c2c[nH]c3cc(C)c(F)cc23)c2ccc(F)cc2OC)cc(S(C)(=O)=O)c1` (single isomer, unassigned) [Enantiomer 9B, 2-(4-fluoro-2-methoxyphenyl)-1-(5-fluoro-6-methyl-1H-indol-3-yl)-2-((3-methoxy-5-(methylsulfonyl)phenyl)amino)ethanone], for which the cytotoxic concentration (CC50) in data set [1] was determined as 21000 nM. In addition, the pEC50 in data set [2] (listed as 9B) is 7.01.
In the case of `COc1cc(NC(C(=O)c2c[nH]c3cc(OC)c(C)cc23)c2ccc(F)cc2OC)cc(S(C)(=O)=O)c1` (single isomer, unassigned) [Enantiomer 10A, 2-(4-fluoro-2-methoxyphenyl)-2-((3-methoxy-5-(methylsulfonyl)phenyl)amino)-1-(6-methoxy-5-methyl-1H-indol-3-yl)ethanone], half-maximal cytotoxicity in data set [1] (CC50) was put at 18000 nM. The molecule further showed a pEC50 in data set [2] (listed as 10A) of 7.27.
With `COc1cc(NC(C(=O)c2c[nH]c3cc(OC)c(F)cc23)c2ccc(F)cc2OC)cc(S(C)(=O)=O)c1` (single isomer, unassigned) [Enantiomer 11B, 2-(4-fluoro-2-methoxyphenyl)-1-(5-fluoro-6-methoxy-1H-indol-3-yl)-2-((3-methoxy-5-(methylsulfonyl)phenyl)amino)ethanone], in data set [1], the CC50 was greater than 25000 nM. Further, the pEC50 in data set [2] (listed as 11B) was 7.26.
With `COc1cc(NC(C(=O)c2c[nH]c3c(Cl)c(OC)ccc23)c2ccc(F)cc2OC)cc(S(C)(=O)=O)c1` (single isomer, unassigned) [Enantiomer 12B, 1-(7-chloro-6-methoxy-1H-indol-3-yl)-2-(4-fluoro-2-methoxyphenyl)-2-((3-methoxy-5-(methylsulfonyl)phenyl)amino)ethanone], the CC50 in data set [1] was greater than 25000 nM. For the same molecule, the negative logarithm of the EC50 (pEC50) in data set [2] (listed as 12B) was 7.68.
In data set [1], `COc1cc(NC(C(=O)c2c[nH]c3cc(F)c(C)cc23)c2ccc(F)cc2OC)cc(S(C)(=O)=O)c1` (single isomer, unassigned) [Enantiomer 14B, 2-(4-fluoro-2-methoxyphenyl)-1-(6-fluoro-5-methyl-1H-indol-3-yl)-2-((3-methoxy-5-(methylsulfonyl)phenyl)amino)ethanone] showed a CC50 of 11000 nM. Moreover, the pEC50 in data set [2] (listed as 14B) is 7.39.
`COc1cc(NC(C(=O)c2c[nH]c3ccc(C)cc23)c2ccc(F)cc2OC)cc(S(C)(=O)=O)c1` (single isomer, unassigned) [Enantiomer 15B, 2-(4-fluoro-2-methoxyphenyl)-2-((3-methoxy-5-(methylsulfonyl)phenyl)amino)-1-(5-methyl-1H-indol-3-yl)ethanone] showed a CC50 in data set [1] of 17000 nM. This molecule also showed a pEC50 in data set [2] (listed as 15B) of 7.14.
Take `COc1cc(NC(C(=O)c2c[nH]c3cc(OC)c(Cl)cc23)c2ccc(F)cc2OC)cc(S(C)(=O)=O)c1` (single isomer, unassigned) [Enantiomer 16B, 1-(5-chloro-6-methoxy-1H-indol-3-yl)-2-(4-fluoro-2-methoxyphenyl)-2-((3-methoxy-5-(methylsulfonyl)phenyl)amino)ethanone]: half-maximal cytotoxicity in data set [1] (CC50) was put at 22000 nM. This molecule also gave a pEC50 in data set [2] (listed as 16B) of 7.89.
In the case of `COc1cc(NC(C(=O)c2c[nH]c3ccc(C(F)(F)F)cc23)c2ccc(F)cc2OC)cc(S(C)(=O)=O)c1` (single isomer, unassigned) [Enantiomer 17A, 2-(4-fluoro-2-methoxyphenyl)-2-((3-methoxy-5-(methylsulfonyl)phenyl)amino)-1-(5-(trifluoromethyl)-1H-indol-3-yl)ethanone], the CC50 in data set [1] came out at 14000 nM. This molecule had a pEC50 in data set [2] (listed as 17A) of 7.42.
In data set [1], `COc1cc(NC(C(=O)c2c[nH]c3ccc(OC(F)(F)F)cc23)c2ccc(F)cc2OC)cc(S(C)(=O)=O)c1` (single isomer, unassigned) [Enantiomer 18B, 2-(4-fluoro-2-methoxyphenyl)-2-((3-methoxy-5-(methylsulfonyl)phenyl)amino)-1-(5-(trifluoromethoxy)-1H-indol-3-yl)ethanone] gave a CC50 of 10000 nM. The molecule further had a pEC50 in data set [2] (listed as 18B) of 8.04.
